Reference: ChEMBL document CHEMBL2424627, “Synthesis of novel bioactive pyrazolothiazoles” (Med Chem Res, 2013)

Key:
[1] = Cytotoxicity against human THP1 cells assessed as cell viability at 10 ug/ml after 24 hrs by CCK-8 assay; format: cell-based; details: THP-1 cells, read-out: Activity
THP-1 [2] = experiment: Antiinflammatory activity in LPS-stimulated human THP1 cells assessed as inhibition of IL-6 release at 10 ug/ml after 24 hrs by ELISA relative to control; format: functional; details: THP-1, 24 h
THP-1 [3] = experiment: Antiinflammatory activity in LPS-stimulated human THP1 cells assessed as inhibition of TNFalpha release at 10 ug/ml after 24 hrs by ELISA relative to control; format: functional; details: THP-1, 24 h
[4] = Cytotoxicity against human THP1 cells assessed as cell viability at 1 ug/ml after 24 hrs by CCK-8 assay; details: THP-1 cells
THP-1 [5] = experiment: Antiinflammatory activity in LPS-stimulated human THP1 cells assessed as inhibition of IL-6 release at 1 ug/ml after 24 hrs by ELISA relative to control; format: functional; details: THP-1, 24 h
THP-1 [6] = experiment: Antiinflammatory activity in LPS-stimulated human THP1 cells assessed as inhibition of TNFalpha release at 1 ug/ml after 24 hrs by ELISA relative to control; format: functional; details: THP-1, 24 h

SMILES	viability at 24 h, 10 ug/ml [1] [%]	inhibition at 10 µg/mL (THP-1 [2]) [%]	inhibition at 10 µg/mL (THP-1 [3]) [%]	viability at 24 h, 1 ug/ml [4] [%]	inhibition at 1 µg/mL (THP-1 [5]) [%]	inhibition at 1 µg/mL (THP-1 [6]) [%]
CCOC(=O)c1cn(-c2ccc(Cl)cc2)nc1-c1sc(N(Cc2ccccc2)c2ccccc2)nc1-c1ccccc1	2	20	7	–	–	–
CCOC(=O)c1cn(-c2ccc([N+](=O)[O-])cc2[N+](=O)[O-])nc1-c1sc(N(CC)c2ccccc2)nc1-c1ccccc1	35	73	0	–	–	–
CCOC(=O)c1cn(-c2ccc(F)cc2)nc1-c1sc(N(C)c2ccccc2)nc1-c1ccccc1	33	61	4	–	–	–
CCOC(=O)c1c[nH]nc1-c1sc(N(CC)c2ccccc2)nc1-c1ccccc1	39	56	14	–	–	–
CCOC(=O)c1cn(-c2ccc([N+](=O)[O-])cc2[N+](=O)[O-])nc1-c1sc(N(C)c2ccccc2)nc1-c1ccccc1	17	52	5	–	–	–
CCOC(=O)c1cn(-c2ccc(F)cc2)nc1-c1sc(N(Cc2ccccc2)c2ccccc2)nc1-c1ccccc1	10	46	16	–	–	–
CCOC(=O)c1cn(-c2ccccc2)nc1-c1sc(N(CC)c2ccccc2)nc1-c1ccccc1	23	47	0	–	–	–
CCOC(=O)c1c[nH]nc1-c1sc(N(C)c2ccccc2)nc1-c1ccccc1	26	71	5	–	–	–
CCOC(=O)c1cn(-c2ccccc2)nc1-c1sc(N(C)c2ccccc2)nc1-c1ccccc1	25	52	0	–	–	–
CCOC(=O)c1cn(-c2ccc(Cl)cc2)nc1-c1sc(N(C)c2ccccc2)nc1-c1ccccc1	23	51	11	–	–	–
C[C@@H]1C[C@H]2[C@@H]3CCC4=CC(=O)C=C[C@]4(C)[C@@]3(F)[C@@H](O)C[C@]2(C)[C@@]1(O)C(=O)CO [DEXAMETHASONE]	–	–	–	0	85	72
CCOC(=O)c1c[nH]nc1-c1sc(N(Cc2ccccc2)c2ccccc2)nc1-c1ccccc1	23	78	13	–	–	–
CCOC(=O)c1cn(-c2ccc(Cl)cc2)nc1-c1sc(N(CC)c2ccccc2)nc1-c1ccccc1	29	58	2	–	–	–
CCOC(=O)c1cn(-c2ccccc2)nc1-c1sc(N(Cc2ccccc2)c2ccccc2)nc1-c1ccccc1	21	53	12	–	–	–
CCOC(=O)c1cn(-c2ccc(F)cc2)nc1-c1sc(N(CC)c2ccccc2)nc1-c1ccccc1	22	48	0	–	–	–
